Test results from patent US9896470B2, “Enhancing the stability and purity and increasing the bioavailability of human milk oligosaccharides or precursors or blends thereof” (Glycom A/S, priority 2012, dated 2018).

How the values were obtained:
Type in all cases: physicochemical
[1] = Calorimetric (DSC) determination of glass transition temperature of the amorphous samples; details: for Tg (glass transition temperature): Perkin Elmer DSC-7, heating rate 10° C./min, spray-dried amorphous sample; for storage temperature limit suggested by Tg: spray-dried amorphous material
Experimental: The calorimetric experiments to determine the glass transition temperature of the amorphous samples were carried out using Perkin Elmer DSC-7 at a heating rate of 10° C./min; the samples (5-7 mg) were placed in open aluminium crucibles.

[2] = Shelf life of spray-dried material on storage; details: below 40° C. storage temperature
[3] = Stability test after two months (40° C., rel. humidity 75%)
Experimental: 75% of the methanol present in the feed solution was removed. […] Tg: 83.9° C.

Tg (glass transition temperature) [1] [°C]	storage temperature limit suggested by Tg [1]	shelf life [2]	SMILES	stability test: changes in analytical data and powder X-ray diagram [3]
84.0	around 60 °C	excellent shelf life	CC(=O)N[C@H]1[C@H]([C@H](O)[C@H](O)CO)O[C@@](OC[C@H]2O[C@@H](O[C@H]3[C@H](O)[C@@H](O)[C@H](O)O[C@@H]3CO)[C@H](O)[C@@H](O)[C@H]2O)(C(=O)O)C[C@@H]1O [spray-dried 6′-SL, 6′-O-sialyllactose]	
81.6	around 60 °C	excellent shelf life	CC(=O)N[C@H]1[C@H](O[C@H]2[C@@H](O)[C@@H](CO)O[C@@H](O[C@H]3[C@H](O)[C@@H](O)C(O)O[C@@H]3CO)[C@@H]2O)O[C@H](CO)[C@@H](O[C@@H]2O[C@H](CO)[C@H](O)[C@H](O)[C@H]2O)[C@@H]1O (mixture of isomers) [spray-dried LNnT, Lacto-N-neotetraose]	no changes in the analytical data and powder X-ray diagram
83.9	around 60 °C	excellent shelf life	C[C@@H]1OC(O[C@H]2[C@H](O[C@H]3[C@H](O)[C@@H](O)C(O)O[C@@H]3CO)O[C@H](CO)[C@H](O)[C@@H]2O)[C@@H](O)[C@H](O)[C@@H]1O (some centres unmarked) [spray-dried 2′-FL, 2′-O-fucosyllactose]	no changes in the analytical data and powder X-ray diagram
